In patent publication US20230159442A1, “CELLULAR ENERGY COMPOUNDS, COMPOSITIONS, AND METHODS OF USE THEREOF” (priority 2021, published 2023):
Like-named read-outs stand apart in the source and are kept apart here.

Assays:
T cells = type: cell-based, human; conditions: T cells with T2 cells, Spike peptide […]; vs media alone
[1] = test system: Calu-3 (human airway epithelial cell line) host cells; type: cell-based
[2] = test system: Calu-3 (human airway epithelial cell line) host cells; type: cell-based; remark: listed apart in the source
[3] = Saturated aqueous solubility determination; conditions: for solubility at 1.5 h: deionized water, 25 °C, water, thermodynamic from solid; for Ratio (relative to CM): solubility relative to creatine monohydrate
Experimental: After 1.5 hour, the saturated solutions were vortexed and 2-ml aliquots removed and centrifuged in microcentrifuge tubes at 11,000 rpm for 5 min. Concentrations were analyzed by HPLC by diluting 500 μL of supernatant with mobile phase (500 μL). The mean±standard deviation of the saturation solubility for each antiviral therapeutic compound is calculated from the corresponding standard curves.

[4] = test system: Madin Darby canine kidney (MDCK) monolayers; test: Flux per hour in MDCK monolayers (contemplated); type: in vitro ADME
Text: […]. […] […].

Caco-2 monolayers = conditions: cited from earlier work

## C[N+](C)(C)CC(=O)OC1CCCC1.[Br-] [betaine cyclopentyl ester]
T cells
  release of IFNg from T cells: increased over the control
[1]
  reduction of TNF expression: slightly reduces
[2]
  IL-1β expression as percent of the expression when no compound is present: less than 20%
  IL-6 expression as percent of the expression when no compound is present: less than 55%
  TNF expression as percent of the expression when no compound is present: less than 20%
  reduction of IL-6 expression: about 60%
  reduction of TNF expression: about 45%
[3]
  solubility at 1.5 h: > 600 mg/mL
  Ratio (relative to CM): >29
[3]; not shown
  aqueous solubility compared with betaine hydrochloride: significantly greater than betaine hydrochloride

## CN(CC(=O)OC1CCCCC1)C(=N)N.Cc1ccc(S(=O)(=O)O)cc1 [creatine cyclohexyl ester]
T cells
  release of IFNg from T cells: increased over the control
[4]
  flux per hour relative to creatine monohydrate: at least double
[1]
  IL-1β expression as percent of the expression when no compound is present: less than 20%
  IL-6 expression as percent of the expression when no compound is present: less than 30%
[3]
  solubility at 1.5 h: 15 to 20 mg/mL
  Ratio (relative to CM): 0.71

## CCOC(=O)CN(C)C(=N)N.Cl [creatine ethyl ester hydrochloride]
Caco-2 monolayers
  permeability relative to creatine monohydrate: 15 fold
[3]
  solubility at 1.5 h: > 200 mg/mL

## CCCCCCCCCCCC(=O)OCC(COC(=O)CCCCCCCCCCC)OC(=O)CN(C)C(=N)N [creatine glycerol laurate ester]
[4]
  flux per hour relative to creatine monohydrate: at least double

## CN(CC(=O)O)C(=N)N.Cl [creatine hydrochloride]
T cells
  release of IFNg from T cells: increased over the control
[1]
  reduction of TNF expression: slightly reduces
[2]
  reduction of CXCL2 expression: 25 to 30%
  reduction of TNF expression: about 25%

## CC(C)CCOC(=O)CN(C)C(=N)N.Cl [creatine isopentyl ester]
T cells
  release of IFNg from T cells: increased over the control
[1]
  IL-1β expression as percent of the expression when no compound is present: less than 35%
[3]
  solubility at 1.5 h: > 600 mg/mL
  Ratio (relative to CM): >29

## CN(CC(=O)O)C(=N)N.O [creatine monohydrate, reference compound]
Caco-2 monolayers
  apparent permeability coefficient: about 0.12±0.004 10^−6 cm/s

## CCCCCCCCCCCC(=O)OC(C)COC(=O)CN(C)C(=N)N (stereo not shown) [creatine propylene glycol laurate ester]
[4]
  flux per hour relative to creatine monohydrate: at least double

## ethyl (α-guanido-methyl) ethanoate [Alpha-GEE]
T cells
  release of IFNg from T cells: increased over the control
[1]
  reduction of CXCL2 expression: ~70%
